From US20110021765A1, “FLUORINATED LANTHANIDE PROBES FOR 19F MAGNETIC RESONANCE APPLICATIONS” (priority 2007, published 2011)
“And” between values parts separate entries of the source, which are not always exact repeats. Identical values can stand only once.

Tests used:
Format in all cases: physicochemical
[1] = 19F NMR chemical shifts and longitudinal relaxation rates at 188 MHz (4.7 T, 298K); conditions: for Longitudinal relaxation rate R1 ortho CF3 group / Longitudinal relaxation rate R1 other CF3 group / Limiting 19F chemical shift δF ortho CF3 group / Limiting 19F chemical shift δF other CF3 group if present: 188 MHz; for Limiting 19F chemical shift δF ortho CF3 group / Limiting 19F chemical shift δF other CF3 group if present: pH 5.5, referred to NaCF3CO2 δF −76.1 ppm
Description: ^19F NMR chemical shifts and longitudinal relaxation rates for various lanthanide complexes of L^1, L^2 and L^3 were measured at 188 MHz (4.7 T, 298K).

[2] = Comparative 19F NMR signal intensity of paramagnetic complexes versus diamagnetic [YL^1]; conditions: 188 MHz (4.7 T), 298K
Description: A comparative analysis examined the ortho-CF3 resonance in ^19F NMR spectra of the diamagnetic Y complex, [YL^1] (R1 0.93 s^−1, {linewidth, ω1/2=2 Hz}) and the terbium (R1 90 s^−1 {.ω1/2 90 Hz} and Dy (R1 77 s^−1 {.ω1/2 35 Hz}) analogues. Using a relaxation delay of 3 times T1, ^19F spectra were acquired over a common time interval of 30 minutes (2 mM complex, 188 MHz (4.7 T), 298K, typical S/N ratio per mM was 100:1). The relative signal intensity ratios per mM of complex (peak height times peak width at half height; processing used a line-broadening function equal to half of the observed linewidth, for the given complex resonance) for observation of the major ortho-CF3 resonance in [TmL^1], [DyL^1] and [TbL^1] versus the diamagnetic analogue, [YL^1], were 52:1 22:1 and 41:1 respectively. This is consistent with the ability to increase the number of scans acquired for the faster relaxing CF3 resonance in the paramagnetic complexes.

[3] = 19F NMR pH titration, acid-base equilibrium fit; conditions: ratio of integrated 19F intensities −59/−53 and −65/−64 ppm
From the text: Solid lines: least-squares fits to the fast-exchange acid-base equilibrium equation for the chemical shift.
Solid lines: least-squares fits to the slow-exchange acid-base equilibrium equation for the NMR line intensity.
The NH group of [Ln.L^4] deprotonates in alkaline conditions, causing the CF3 group of [Ho.L^4] to shift from −55.1 ppm to −36.8 ppm under basic conditions (see FIG. 3). Because the acid-base equilibrium is fast in this system ([…] lanthanide re-coordination involved), only one signal is observed, with the chemical shift corresponding to the weighted average of the chemical shifts of the individual forms.
The higher pKa values in biofluids are the result of additional stabilization of the acidic form by carbonate coordination (see FIG. 4) (S. Aime, A. Barge, M. Botta, J. A. K. Howard, R. Kataky, M. P. Lowe, J. M. Moloney, D. Parker and A. S. de Sousa, Chem. Commun., 1999, 1047); (Y. Bretonniere, M. J. Cann, D. Parker and R. J. Slater, Org. Biomol. Chem., 2004, 2, 1624). The basic form exists as a mixture of two diastereomers, defined by the R or S configuration at the sulphur atom (Scheme 3). The experimental ratio is 6:1 (298 K, pH=8), resonating at −98 and −112 ppm respectively. […]

[4] = Eu luminescence emission intensity ratio versus pH; conditions: 298K, H2O, 0.1 M NaCl
[5] = N-protonated complex, pH 5.5, 188 MHz

Row | δF ortho CF3 group, N-protonated complex (value in parentheses) [1, 5] [ppm] | δF other CF3 group, N-protonated complex (value in parentheses) [1, 5] [ppm] | R1 ortho CF3 group, N-protonated complex (value in parentheses) [1, 5] [s⁻¹] | R1 other CF3 group, N-protonated complex (value in parentheses) [1, 5] [s⁻¹] | Complex protonation constant pKMLH [3] | Apparent protonation constant from Eu emission band intensity ratio [4] | SMILES | Longitudinal relaxation rate R1 ortho CF3 group ([1]; pH 5.5) | Longitudinal relaxation rate R1 other CF3 group ([1]; pH 5.5) [s⁻¹] | Limiting 19F chemical shift δF ortho CF3 group [1] [ppm] | Limiting 19F chemical shift δF other CF3 group if present [1] [ppm] | Longitudinal relaxation rate R1 ortho CF3 group ([1]; pH 5.5, listed as yttrium (III) complex of ligand L^1) [s⁻¹] | Linewidth ω1/2 of ortho-CF3 resonance [2] [Hz]
1 | −59 | −64 |  |  |  |  | O=C([O-])CN1CCN(CC[N-]S(=O)(=O)c2cc(C(F)(F)F)ccc2C(F)(F)F)CCN(CC(=O)[O-])CCN(CC(=O)[O-])CC1.[Tb+3] [[TbL^2]^−] | 71 s⁻¹ | 23 | −159 | −45 |  | 
2 |  |  |  |  |  |  | O=C([O-])CN1CCN(CC(=O)[O-])CCN(CC(=O)Nc2ccc(C(F)(F)F)cc2C(F)(F)F)CCN(CC(=O)[O-])CC1.[Yb+3] [[YbL^1]] | 4.6 s⁻¹ | 1.7 | −65.4 | −59.6 |  | 
3 |  |  |  |  |  |  | O=C([O-])CN1CCN(CC(=O)[O-])CCN(CC(=O)Nc2ccc(C(F)(F)F)cc2C(F)(F)F)CCN(CC(=O)[O-])CC1.[Tm+3] [[TmL^1]] | 16 s⁻¹ | 5.6 | −79.6 | −55 |  | 
4 |  |  |  |  |  |  | O=C([O-])CN1CCN(CC(=O)[O-])CCN(CC(=O)Nc2ccc(C(F)(F)F)cc2C(F)(F)F)CCN(CC(=O)[O-])CC1.[Y+3] [[YL^1]] | 0.93 s⁻¹ and 0.9 s⁻¹ | ~0.9 | −61.3 | −63.1 | ~0.9 | 2
5 | −59 | −64 | 2.2 | 1.2 | 5.5 (±0.05) | 5.5 | O=C([O-])CN1CCN(CC[N-]S(=O)(=O)c2cc(C(F)(F)F)ccc2C(F)(F)F)CCN(CC(=O)[O-])CCN(CC(=O)[O-])CC1.[Eu+3] [[EuL^2]^−] | 2.5 s⁻¹ | 1.5 | −53 | −65 |  | 
